The source of these data is ChEMBL document CHEMBL4725222, “Advances in the Development of Phosphodiesterase-4 Inhibitors” (J Med Chem, 2020).

Assay [1] addresses T1, Phosphodiesterase 4 (Homo sapiens, UniProt P27815+Q08499+Q07343+Q08493). Description: Inhibition of PDE4 in human U937 cell lysate using cAMP as substrate by LANCE assay. In kind it is subcellular. Particulars: u-937.
Assay [2] concerns the target Muscarinic acetylcholine receptor M3 (Homo sapiens, UniProt P20309). Description: Displacement of [3H]N -methylscopolamine from human muscarinic M3 receptor expressed in CHO-K1 cells incubated for 90 mins by scintillation counting method. It counts as cell-based. A general note: In a radioligand displacement assay an active substance lowers the binding of a labelled ligand.

Assay [3] has as its target 3',5'-cyclic-AMP phosphodiesterase 4B (Homo sapiens, UniProt Q07343). Description: Inhibition of PDE4B (unknown origin).
Assay [4] deals with Mitogen-activated protein kinase 14 (Homo sapiens, UniProt Q16539). Description: Inhibition of P38 alpha MAPK (unknown origin).
The target of assay [5] is Mitogen-activated protein kinase 10 (Homo sapiens, UniProt P53779). Description: Inhibition of JNK3 (unknown origin).
The target of assay [6] is T1, Phosphodiesterase 4. Description: Inhibition of human PDE4 expressed in Saccharomyces cerevisiae preincubated for 30 mins followed by cAMP substrate addition.
The subject of assay [7] is Homo sapiens. Description: Inhibition of late allergic response in atopic asthmatic patient assessed as reduction in minimum FEV1 level at 87.5 ug administered once daily via inhalation for 7 days followed by allergen challenge relative to placebo. In kind it is functional. Particulars: dose 87.5 µg; time 7 day.
Assay [8] relates to Homo sapiens. Description: Inhibition of late allergic response in atopic asthmatic patient assessed as reduction in weighted mean FEV1 level at 87.5 ug administered once daily via inhalation for 7 days followed by allergen challenge relative to placebo. In kind it is functional. Particulars: dose 87.5 µg; time 7 day.
Assay [9] concerns Homo sapiens. Description: Inhibition of early allergic response in atopic asthmatic patient assessed as reduction in minimum FEV1 level at 87.5 ug administered once daily via inhalation for 7 days followed by allergen challenge relative to placebo. In kind it is functional. Particulars: dose 87.5 µg; time 7 day.
The subject of assay [10] is Homo sapiens. Description: Inhibition of early allergic response in atopic asthmatic patient assessed as reduction in weighted mean FEV1 level at 87.5 ug administered once daily via inhalation for 7 days followed by allergen challenge relative to placebo. It counts as functional. As to conditions: dose 87.5 µg; time 7 day.

The term IC50 denotes the concentration that gives 50% inhibition.

Each structure is given as a SMILES string.

Mitogen-activated protein kinase 10, sequence (P53779 whole entry): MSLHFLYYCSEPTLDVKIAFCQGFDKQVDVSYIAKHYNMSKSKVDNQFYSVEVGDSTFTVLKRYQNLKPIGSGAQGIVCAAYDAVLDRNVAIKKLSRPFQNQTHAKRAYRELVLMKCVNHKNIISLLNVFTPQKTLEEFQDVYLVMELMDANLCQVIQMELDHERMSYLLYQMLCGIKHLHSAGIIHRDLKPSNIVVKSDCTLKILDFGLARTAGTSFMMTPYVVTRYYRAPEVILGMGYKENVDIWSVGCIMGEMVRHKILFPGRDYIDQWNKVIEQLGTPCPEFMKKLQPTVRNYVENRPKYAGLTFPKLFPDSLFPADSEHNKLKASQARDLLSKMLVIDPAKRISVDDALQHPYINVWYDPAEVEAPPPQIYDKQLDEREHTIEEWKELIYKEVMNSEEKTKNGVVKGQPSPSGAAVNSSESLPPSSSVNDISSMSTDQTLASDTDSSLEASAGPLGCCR
Mitogen-activated protein kinase 14, sequence (Q16539 whole entry): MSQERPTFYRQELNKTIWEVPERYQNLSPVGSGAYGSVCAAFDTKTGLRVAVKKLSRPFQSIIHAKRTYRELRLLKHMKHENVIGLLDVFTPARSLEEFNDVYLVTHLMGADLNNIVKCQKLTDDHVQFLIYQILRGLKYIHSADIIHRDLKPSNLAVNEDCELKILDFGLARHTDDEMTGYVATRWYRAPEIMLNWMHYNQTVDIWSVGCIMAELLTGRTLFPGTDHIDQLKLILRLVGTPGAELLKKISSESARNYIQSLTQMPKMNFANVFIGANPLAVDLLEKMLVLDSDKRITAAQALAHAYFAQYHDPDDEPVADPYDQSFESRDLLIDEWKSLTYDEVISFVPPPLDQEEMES
Muscarinic acetylcholine receptor M3, sequence (P20309 whole entry): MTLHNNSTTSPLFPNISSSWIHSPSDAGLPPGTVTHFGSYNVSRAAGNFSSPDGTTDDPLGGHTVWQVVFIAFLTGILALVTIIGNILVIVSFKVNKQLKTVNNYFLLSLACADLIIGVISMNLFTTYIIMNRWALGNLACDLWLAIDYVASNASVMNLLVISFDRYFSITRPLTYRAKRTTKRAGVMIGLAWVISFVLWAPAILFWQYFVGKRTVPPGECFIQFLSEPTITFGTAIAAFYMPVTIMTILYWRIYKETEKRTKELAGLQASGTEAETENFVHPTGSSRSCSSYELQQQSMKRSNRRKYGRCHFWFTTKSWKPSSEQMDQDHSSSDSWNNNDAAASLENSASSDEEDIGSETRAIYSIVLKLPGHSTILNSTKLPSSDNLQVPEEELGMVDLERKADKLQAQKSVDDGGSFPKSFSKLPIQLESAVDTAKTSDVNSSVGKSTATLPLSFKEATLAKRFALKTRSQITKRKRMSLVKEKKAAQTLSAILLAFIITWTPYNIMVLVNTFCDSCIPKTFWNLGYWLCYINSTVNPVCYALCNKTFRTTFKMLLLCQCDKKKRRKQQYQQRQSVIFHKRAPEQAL
3',5'-cyclic-AMP phosphodiesterase 4B, sequence (Q07343 whole entry): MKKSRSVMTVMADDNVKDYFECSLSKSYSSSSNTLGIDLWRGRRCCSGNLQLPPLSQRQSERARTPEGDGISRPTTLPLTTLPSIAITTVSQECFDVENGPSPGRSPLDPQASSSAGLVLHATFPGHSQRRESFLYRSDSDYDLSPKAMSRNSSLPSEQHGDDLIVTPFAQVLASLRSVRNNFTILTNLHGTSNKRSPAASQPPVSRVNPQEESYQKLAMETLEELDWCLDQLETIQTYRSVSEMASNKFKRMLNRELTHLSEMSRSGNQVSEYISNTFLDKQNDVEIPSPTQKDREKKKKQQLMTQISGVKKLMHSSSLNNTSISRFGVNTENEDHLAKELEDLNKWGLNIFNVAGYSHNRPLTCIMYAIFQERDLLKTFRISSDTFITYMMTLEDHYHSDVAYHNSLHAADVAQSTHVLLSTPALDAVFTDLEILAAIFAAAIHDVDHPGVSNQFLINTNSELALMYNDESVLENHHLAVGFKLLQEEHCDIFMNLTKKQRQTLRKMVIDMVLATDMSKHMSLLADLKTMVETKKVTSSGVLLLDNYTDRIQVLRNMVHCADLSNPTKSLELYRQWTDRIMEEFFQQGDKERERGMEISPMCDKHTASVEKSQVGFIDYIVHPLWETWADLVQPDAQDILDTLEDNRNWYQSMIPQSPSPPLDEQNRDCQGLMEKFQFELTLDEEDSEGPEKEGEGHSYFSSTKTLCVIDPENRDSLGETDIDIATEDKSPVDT

Take `O=C(O[C@@H](Cc1c(Cl)c[n+]([O-])cc1Cl)c1ccc(OC(F)F)c(OCC2CC2)c1)C1CN(C(=O)c2ccc(COc3cccc(CN(C(=O)O[C@H]4CN5CCC4CC5)c4ccccc4)c3)cc2)C1`: the IC50 in assay [1] and in [2] was 100 nM throughout.
Take `CC(=O)Nc1ccc(-c2c(-c3ccc(F)cc3)nc([S+](C)[O-])n2C)cn1` (stereo not given): the results for the IC50 in assay [3], in assay [4] and in assay [5] were 200 nM, 500 nM and 700 nM, respectively.
Regarding `COc1cccc(Nc2c(C(N)=O)cnc3c(C)cc(S(=O)(=O)c4cccc(C(=O)N(C)C)c4)cc23)c1` [GSK-256066], in assay [6], the IC50 came to 0.0032 nM. For the same compound, the “inhibition (INH)” value in assay [7] was determined as 26.2%; in assay [8], 34.3%; in assay [9], 40.9%; in assay [10], 57.2%.
